Patent US20250195468A1, “METHODS AND COMPOSITIONS FOR TREATING COLORECTAL CANCER WITH INDOXYL SULFATE” (National Institute of Immunology, priority 2023, published 2025)
Structures can show the parent of a compound that is named as a salt.

Tested on: HT-29 cells
Assay: Clonogenic (colony forming) assay
Type: cell-based, human
Settings: HT-29, 1.25-10 mM for 48 hours, 10 days colony growth
Procedure: To assess the colony-forming ability of cells after treatment with IS, a colony forming assay was performed. HCT-116 and HT-29 cells were cultured in 6-well plates at a density of 2×10^5 cells per well. After 24 hours of seeding, the cells were exposed to IS at concentrations of 1.25 mM, 5 mM, and 10 mM. Following a 48-hour treatment period, the cells were harvested using trypsin and counted for each treatment. From each treatment group, 400, 800, and 1200 cells were plated and incubated for 10 days in 6-well plates. During the incubation period, the media were replenished every alternate day. After 10 days, the colonies were washed with PBS and stained with 0.5% crystalline violet. The cells were then fixed with 6% glutaraldehyde. The colonies were visualized and counted using ImageJ software. The clonogenic efficiency of the treated cells was compared to that of the untreated cells.

O=S(=O)(O)Oc1c[nH]c2ccccc12 [IS, Indoxyl Sulfate]
number of colonies formed compared to control: significant reduction in the number of colonies formed
